From PubChem BioAssay (NCI)
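48-hour exposure; five concentrations; linearly interpolated endpoints. GI50 is the concentration that inhibits growth by half. TGI: concentration producing complete growth inhibition.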

How the values were obtained:
Experiment in all cases: growth of human tumour cells (NCI), 48 h; in the data active = GI50 below about 0.43 µM; inactive = the rest
MOLT-4 leukemia = test system: MOLT-4 leukemia
HCT-116 colon = test system: HCT-116 colon
HOP-92 NSCLC = test system: HOP-92 NSCLC
HOP-62 NSCLC = test system: HOP-62 NSCLC
A549 NSCLC = test system: A549 NSCLC
LOX IMVI melanoma = test system: LOX IMVI melanoma
SR leukemia = test system: SR leukemia
A498 renal = test system: A498 renal
SK-OV-3 ovarian = test system: SK-OV-3 ovarian
UACC-62 melanoma = test system: UACC-62 melanoma
T-47D breast = test system: T-47D breast
IGROV1 ovarian = test system: IGROV1 ovarian
RXF 393 renal = test system: RXF 393 renal
CCRF-CEM leukemia = test system: CCRF-CEM leukemia
PC-3 prostate = test system: PC-3 prostate
SN12C renal = test system: SN12C renal
SF-539 CNS = test system: SF-539 CNS
KM12 colon = test system: KM12 colon
EKVX NSCLC = test system: EKVX NSCLC
RPMI-8226 leukemia = test system: RPMI-8226 leukemia
UO-31 renal = test system: UO-31 renal
SF-295 CNS = test system: SF-295 CNS
SNB-19 CNS = test system: SNB-19 CNS
MCF7 breast = test system: MCF7 breast
NCI-H522 lung = test system: NCI-H522 lung
M14 melanoma = test system: M14 melanoma
786-0 renal = test system: 786-0 renal
OVCAR-8 ovarian = test system: OVCAR-8 ovarian
NCI/ADR-RES ovarian = test system: NCI/ADR-RES ovarian
OVCAR-5 ovarian = test system: OVCAR-5 ovarian
U251 CNS = test system: U251 CNS
NCI-H460 lung = test system: NCI-H460 lung
NCI-H226 lung = test system: NCI-H226 lung
HS 578T breast = test system: HS 578T breast
NCI-H23 lung = test system: NCI-H23 lung
HCC-2998 colon = test system: HCC-2998 colon
SW-620 colon = test system: SW-620 colon
CAKI-1 renal = test system: CAKI-1 renal
BT-549 breast = test system: BT-549 breast
SF-268 CNS = test system: SF-268 CNS
SK-MEL-2 melanoma = test system: SK-MEL-2 melanoma
K-562 leukemia = test system: K-562 leukemia
SK-MEL-5 melanoma = test system: SK-MEL-5 melanoma
MDA-MB-231 breast = test system: MDA-MB-231 breast
COLO 205 colon = test system: COLO 205 colon
MDA-MB-435 = test system: MDA-MB-435
UACC-257 melanoma = test system: UACC-257 melanoma
HCT-15 colon = test system: HCT-15 colon
HT29 colon = test system: HT29 colon
OVCAR-3 ovarian = test system: OVCAR-3 ovarian
TK-10 renal = test system: TK-10 renal
DU-145 prostate = test system: DU-145 prostate
ACHN renal = test system: ACHN renal
MALME-3M melanoma = test system: MALME-3M melanoma
OVCAR-4 ovarian = test system: OVCAR-4 ovarian
SNB-75 CNS = test system: SNB-75 CNS
HL-60(TB) leukemia = test system: HL-60(TB) leukemia
SK-MEL-28 melanoma = test system: SK-MEL-28 melanoma

C=C1C(=O)O[C@@H]2C[C@@H]1CC[C@]1(C)O[C@H]1CC/C(C)=C/CC[C@@]2(C)O
34.5 µM: TGI (SF-539 CNS)
28.1 µM: TGI (MOLT-4 leukemia)
37 µM: TGI (CAKI-1 renal)
21.3 µM: TGI (HCT-15 colon)
35.3 µM: TGI (M14 melanoma)
41.1 µM: TGI (SN12C renal) | TGI (MDA-MB-435)
23.6 µM: TGI (HCC-2998 colon)
39.3 µM: TGI (BT-549 breast)
25.8 µM: TGI (HCT-116 colon)
34.8 µM: TGI (COLO 205 colon)
80.2 µM: TGI (EKVX NSCLC)
15.7 µM: TGI (SR leukemia)
48.8 µM: TGI (MDA-MB-231 breast)
57.8 µM: TGI (OVCAR-8 ovarian)
36.4 µM: TGI (UACC-62 melanoma)
56.3 µM: TGI (NCI/ADR-RES ovarian)
64.1 µM: TGI (OVCAR-3 ovarian)
33.7 µM: TGI (SW-620 colon)
68.5 µM: TGI (HS 578T breast)
83.7 µM: TGI (A549 NSCLC)
34.3 µM: TGI (KM12 colon)
36 µM: TGI (MCF7 breast)
31.7 µM: TGI (HT29 colon)
28.9 µM: TGI (U251 CNS)
31.2 µM: TGI (786-0 renal)
59.2 µM: TGI (NCI-H226 lung)
64 µM: TGI (SK-OV-3 ovarian)
58.4 µM: TGI (NCI-H23 lung)
inactive: GI50 (MOLT-4 leukemia) 11.7 µM | GI50 (HCT-116 colon) 13.1 µM | GI50 (HOP-92 NSCLC) 29.1 µM | GI50 (HOP-62 NSCLC) 24.2 µM | GI50 (A549 NSCLC) 25.3 µM | GI50 (LOX IMVI melanoma) 0.895 µM | GI50 (SR leukemia) 4.07 µM | GI50 (A498 renal) 23.3 µM | GI50 (SK-OV-3 ovarian) 25.5 µM | GI50 (UACC-62 melanoma) 17.5 µM | GI50 (T-47D breast) 28.8 µM | GI50 (IGROV1 ovarian) 31.7 µM | GI50 (RXF 393 renal) 25.1 µM | GI50 (CCRF-CEM leukemia) > 100 µM | GI50 (PC-3 prostate) 96.3 µM | GI50 (SN12C renal) 18.6 µM | GI50 (SF-539 CNS) 16.5 µM | GI50 (KM12 colon) 16.2 µM | GI50 (EKVX NSCLC) 23.4 µM | GI50 (RPMI-8226 leukemia) 6.58 µM | GI50 (UO-31 renal) 29.5 µM | GI50 (SF-295 CNS) 29.7 µM | GI50 (SNB-19 CNS) 49.6 µM | GI50 (MCF7 breast) 15.2 µM | GI50 (NCI-H522 lung) 27.2 µM | GI50 (M14 melanoma) 16.8 µM | GI50 (786-0 renal) 17 µM | GI50 (OVCAR-8 ovarian) 22.3 µM | GI50 (NCI/ADR-RES ovarian) 20.9 µM | GI50 (OVCAR-5 ovarian) 28.6 µM | GI50 (U251 CNS) 15.5 µM | GI50 (NCI-H460 lung) 15.7 µM | GI50 (NCI-H226 lung) 21.7 µM | GI50 (HS 578T breast) 21.7 µM | GI50 (NCI-H23 lung) 20.9 µM | GI50 (HCC-2998 colon) 10.6 µM | GI50 (SW-620 colon) 15.8 µM | GI50 (CAKI-1 renal) 18.7 µM | GI50 (BT-549 breast) 16.9 µM | GI50 (SF-268 CNS) 19.9 µM | GI50 (SK-MEL-2 melanoma) 64.4 µM | GI50 (K-562 leukemia) 34.3 µM | GI50 (SK-MEL-5 melanoma) 24.3 µM | GI50 (MDA-MB-231 breast) 21.4 µM | GI50 (COLO 205 colon) 18.1 µM | GI50 (MDA-MB-435) 18.3 µM | GI50 (UACC-257 melanoma) 11.3 µM | GI50 (HCT-15 colon) 8.51 µM | GI50 (HT29 colon) 15.4 µM | GI50 (OVCAR-3 ovarian) 23.1 µM | GI50 (TK-10 renal) 15.4 µM
52.7 µM: TGI (SK-MEL-5 melanoma)
40.2 µM: TGI (NCI-H460 lung)
74.5 µM: TGI (A498 renal)
> 100 µM: TGI (IGROV1 ovarian) | TGI (CCRF-CEM leukemia) | TGI (PC-3 prostate) | TGI (RPMI-8226 leukemia) | TGI (UO-31 renal) | TGI (SNB-19 CNS) | TGI (NCI-H522 lung) | TGI (SK-MEL-2 melanoma) | TGI (K-562 leukemia)
58.7 µM: TGI (T-47D breast)
96 µM: TGI (OVCAR-5 ovarian)
47.7 µM: TGI (HOP-62 NSCLC)
50.5 µM: TGI (SF-268 CNS)
82.7 µM: TGI (HOP-92 NSCLC)
92.5 µM: TGI (SF-295 CNS)
55.4 µM: TGI (RXF 393 renal)
4.85 µM: TGI (LOX IMVI melanoma)
37.8 µM: TGI (TK-10 renal)
31.8 µM: TGI (UACC-257 melanoma)

C#CC[C@@H]1C[C@]2(C)[C@H]3CC=C4[C@H]5[C@@H](C)[C@H](C)CC[C@]5(C(=O)NCCCCCCCCN)CC[C@@]4(C)[C@]3(C)CC[C@H]2C(C)(C)[C@H]1OC(C)=O
5.69 µM: TGI (K-562 leukemia)
3.21 µM: TGI (A498 renal)
inactive: GI50 (A498 renal) 1.78 µM | GI50 (OVCAR-8 ovarian) 2.15 µM | GI50 (K-562 leukemia) 2.02 µM
5.01 µM: TGI (OVCAR-8 ovarian)

CCOC(=O)c1cc(-c2ccc([N+](=O)[O-])cc2)c([N+](=O)[O-])[nH]1
5.77 µM: TGI (NCI-H226 lung)
7.47 µM: TGI (SF-295 CNS)
9.3 µM: TGI (MDA-MB-435)
8.01 µM: TGI (NCI-H23 lung)
5.49 µM: TGI (HOP-92 NSCLC)
5.68 µM: TGI (UACC-257 melanoma)
9.41 µM: TGI (RXF 393 renal)
9.95 µM: TGI (T-47D breast)
9.69 µM: TGI (UO-31 renal)
> 10 µM: TGI (MOLT-4 leukemia) | TGI (HCT-116 colon) | TGI (A549 NSCLC) | TGI (SR leukemia) | TGI (SK-OV-3 ovarian) | TGI (DU-145 prostate) | TGI (UACC-62 melanoma) | TGI (IGROV1 ovarian) | TGI (ACHN renal) | TGI (CCRF-CEM leukemia) | TGI (SN12C renal) | TGI (MALME-3M melanoma) | TGI (SF-539 CNS) | TGI (KM12 colon) | TGI (EKVX NSCLC) | TGI (SNB-19 CNS) | TGI (NCI-H522 lung) | TGI (M14 melanoma) | TGI (786-0 renal) | TGI (OVCAR-8 ovarian) | TGI (NCI/ADR-RES ovarian) | TGI (OVCAR-4 ovarian) | TGI (OVCAR-5 ovarian) | TGI (U251 CNS) | TGI (NCI-H460 lung) | TGI (HS 578T breast) | TGI (HCC-2998 colon) | TGI (BT-549 breast) | TGI (SF-268 CNS) | TGI (SK-MEL-2 melanoma) | TGI (K-562 leukemia) | TGI (SNB-75 CNS) | TGI (MDA-MB-231 breast) | TGI (HCT-15 colon) | TGI (HT29 colon) | TGI (OVCAR-3 ovarian) | TGI (TK-10 renal)

Cc1cn(CC2=NC3CCCCC3N2)c(=O)[nH]c1=O (stereo unspecified)
> 100 µM: TGI (HL-60(TB) leukemia) | TGI (MOLT-4 leukemia) | TGI (HCT-116 colon) | TGI (HOP-92 NSCLC) | TGI (HOP-62 NSCLC) | TGI (A549 NSCLC) | TGI (LOX IMVI melanoma) | TGI (SR leukemia) | TGI (A498 renal) | TGI (SK-OV-3 ovarian) | TGI (DU-145 prostate) | TGI (UACC-62 melanoma) | TGI (T-47D breast) | TGI (IGROV1 ovarian) | TGI (SK-MEL-28 melanoma) | TGI (RXF 393 renal) | TGI (ACHN renal) | TGI (CCRF-CEM leukemia) | TGI (PC-3 prostate) | TGI (SN12C renal) | TGI (MALME-3M melanoma) | TGI (EKVX NSCLC) | TGI (RPMI-8226 leukemia) | TGI (UO-31 renal) | TGI (SF-295 CNS) | TGI (SNB-19 CNS) | TGI (MCF7 breast) | TGI (NCI-H522 lung) | TGI (M14 melanoma) | TGI (786-0 renal) | TGI (OVCAR-8 ovarian) | TGI (NCI/ADR-RES ovarian) | TGI (OVCAR-5 ovarian) | TGI (U251 CNS) | TGI (NCI-H460 lung) | TGI (NCI-H226 lung) | TGI (HS 578T breast) | TGI (NCI-H23 lung) | TGI (HCC-2998 colon) | TGI (SW-620 colon) | TGI (BT-549 breast) | TGI (SF-268 CNS) | TGI (SK-MEL-2 melanoma) | TGI (K-562 leukemia) | TGI (SNB-75 CNS) | TGI (SK-MEL-5 melanoma) | TGI (MDA-MB-231 breast) | TGI (COLO 205 colon) | TGI (UACC-257 melanoma) | TGI (HCT-15 colon) | TGI (HT29 colon) | TGI (TK-10 renal)
